Measurements as given in patent publication US20180273538A1, “PYRROLO[2,3-d]PYRIMIDINE DERIVATIVES, A PROCESS FOR THEIR PREPARATION AND PHARMACEUTICAL COMPOSITIONS CONTAINING THEM” (LES LABORATOIRES SERVIER, priority 2015, published 2018).

Molecular target: T1, His-TEV-DYRK1A Kinase domain (aa127-485) (Homo sapiens, UniProt Q13627)
T1 construct: His-TEV-DYRK1A Kinase domain (aa127-485); His (N); TEV cleavage site (N)
Assay: Kinase ADP assay (ADP Hunter Plus)
Assay type: biochemical

SMILES	IC50
Cc1nc(N2CCCC2C(F)(F)F)c2c(-c3ccnc(N)c3)c[nH]c2n1 (stereo not drawn) [Example 107, 4-{2-methyl-4-[2-(trifluoromethyl)pyrrolidin-1-yl]-7H-pyrrolo[2,3-d]pyrimidin-5-yl}pyridin-2-amine]	0.666 µM
Cc1nc(N2CC[C@H]3CCCC[C@H]3C2)c2c(-c3ccnc(N)c3)c[nH]c2n1 [Example 110]	0.048 µM
Cc1nc(N2CC[C@H]3CCCC[C@@H]3C2)c2c(-c3ccnc(N)c3)c[nH]c2n1 [Example 111, 4-{2-methyl-4-[(4aR,8aS)-octahydro-isoquinolin-2(1H)-yl]-7H-pyrrolo[2,3-d]pyrimidin-5-yl}pyridin-2-amine]	0.013 µM
Cc1nc(NCC2COc3ccccc32)c2c(-c3ccnc(N)c3)c[nH]c2n1 (stereo not drawn) [Example 112, 5-(2-aminopyridin-4-yl)-N-(2,3-dihydro-1-benzofuran-3-ylmethyl)-2-methyl-7H-pyrrolo[2,3-d]pyrimidin-4-amine]	0.234 µM
Cc1nc(N[C@@H]2CCc3ccccc32)c2c(-c3cc(N)nc(N)c3)c[nH]c2n1 [Example 118, 4-{4-[(1R)-2,3-dihydro-1H-inden-1-ylamino]-2-methyl-7H-pyrrolo[2,3-d]pyrimidin-5-yl}pyridine-2,6-diamine]	0.011 µM
Cc1nc(NCCc2ccccn2)c2c(-c3ccnc(N)c3)c[nH]c2n1 [Example 124, 5-(2-aminopyridin-4-yl)-2-methyl-N-[2-(pyridin-2-yl)ethyl]-7H-pyrrolo[2,3-d]pyrimidin-4-amine]	0.296 µM
Cc1nc(N2C[C@@H](C)O[C@@H](C)C2)c2c(-c3cc(N)nc(N)c3)c[nH]c2n1 [Example 126, 4-{4-[(2R,6S)-2,6-dimethylmorpholin-4-yl]-2-methyl-7H-pyrrolo[2,3-d]pyrimidin-5-yl}pyridine-2,6-diamine + 4-{4-[(2S,6R)-2,6-dimethylmorpholin-4-yl]-2-methyl-7H-pyrrolo[2,3-d]pyrimidin-5-yl}pyridine-2,6-diamine]	0.418 µM
Cc1nc(Nc2ccccc2)c2c(-c3ccnc(N)c3)c[nH]c2n1 [Example 129, 5-(2-aminopyridin-4-yl)-2-methyl-N-phenyl-7H-pyrrolo[2,3-d]pyrimidin-4-amine]	0.072 µM
Cc1nc(N2CCOC(C)C2)c2c(-c3ccnc(N)c3)c[nH]c2n1 (stereo not drawn) [Example 137, 4-[2-methyl-4-(2-methylmorpholin-4-yl)-7H-pyrrolo[2,3-d]pyrimidin-5-yl]pyridin-2-amine]	0.336 µM
COC1CCCN(c2nc(C)nc3[nH]cc(-c4ccnc(N)c4)c23)C1 (stereo not drawn) [Example 138, 4-[4-(3-methoxypiperidin-1-yl)-2-methyl-7H-pyrrolo[2,3-d]pyrimidin-5-yl]pyridin-2-amine]	0.407 µM
COC1CCN(c2nc(C)nc3[nH]cc(-c4cc(N)nc(N)c4)c23)CC1 [Example 139, 4-[4-(4-methoxypiperidin-1-yl)-2-methyl-7H-pyrrolo[2,3-d]pyrimidin-5-yl]pyridine-2,6-diamine]	0.883 µM
Cc1nc(N2CCOCC2)c2c(-c3cc(N)nc(N)c3)c[nH]c2n1 [Example 140, 4-[2-methyl-4-(morpholin-4-yl)-7H-pyrrolo[2,3-d]pyrimidin-5-yl]pyridine-2,6-diamine]	1.22 µM
Cc1nc(N2CCc3nccnc3C2)c2c(-c3cc(N)nc(N)c3)c[nH]c2n1 [Example 142, 4-[4-(7,8-dihydropyrido[3,4-b]pyrazin-6(5H)-yl)-2-methyl-7H-pyrrolo[2,3-d]pyrimidin-5-yl]pyridine-2,6-diamine]	0.512 µM

Continued by falling IC50, values first:

IC50	SMILES
0.848 µM	Cc1nc(N2CCOCC2)c2c(-c3ccnc(N)c3)c[nH]c2n1 [Example 134, 4-[2-methyl-4-(morpholin-4-yl)-7H-pyrrolo[2,3-d]pyrimidin-5-yl]pyridin-2-amine]
0.694 µM	Cc1nc(N2CCC2c2ccccc2)c2c(-c3ccnc(N)c3)c[nH]c2n1 (stereo not drawn) [Example 103, 4-[2-methyl-4-(2-phenylazetidin-1-yl)-7H-pyrrolo[2,3-d]pyrimadin-5-yl]pyridin-2-amine]
0.6 µM	Cc1nc(Nc2ccccc2C(F)(F)F)c2c(-c3cc(N)nc(N)c3)c[nH]c2n1 [Example 131, 4-(2-methyl-4-{[2-(trifluoromethyl)phenyl]amino}-7H-pyrrolo[2,3-d]pyrimidin-5-yl)pyridine-2,6-diamine]
0.524 µM	Cc1nc(N2CC3(CCCCC3)C2)c2c(-c3ccnc(N)c3)c[nH]c2n1 [Example 109, 4-[4-(2-azaspiro[3.5]non-2-yl)-2-methyl-7H-pyrrolo[2,3-d]pyrimidin-5-yl]pyridin-2-amine]
0.417 µM	Cc1nc(N2CCn3ccnc3C2)c2c(-c3cc(N)nc(N)c3)c[nH]c2n1 [Example 141, 4-[4-(5,6-dihydroimidazo[1,2-a]pyrazin-7(8H)-yl)-2-methyl-7H-pyrrolo[2,3-d]pyrimidin-5-yl]pyridine-2,6-diamine]
0.269 µM	COC1CCN(c2nc(C)nc3[nH]cc(-c4ccnc(N)c4)c23)CC1 [Example 133, 4-[4-(4-methoxypiperidin-1-yl)-2-methyl-7H-pyrrolo[2,3-d]pyrimidin-5-yl]pyridin-2-amine]
0.26 µM	Cc1nc(Nc2ccccc2C(F)(F)F)c2c(-c3ccnc(N)c3)c[nH]c2n1 [Example 130, 5-(2-aminopyridin-4-yl)-2-methyl-N-[2-(trifluoromethyl)phenyl]-7H-pyrrolo[2,3-d]pyrimidin-4-amine]
0.169 µM	Cc1nc(N2CCc3nccnc3C2)c2c(-c3ccnc(N)c3)c[nH]c2n1 [Example 136, 4-[4-(7,8-dihydropyrido[3,4-b]pyrazin-6(5H)-yl)-2-methyl-7H-pyrrolo[2,3-d]primidin-5-yl]pyridin-2-amine]
0.121 µM	Cc1nc(N2CCC(C(F)(F)F)CC2)c2c(-c3ccnc(N)c3)c[nH]c2n1 [Example 105, 4-{2-methyl-4-[4-(trifluoromethyl)piperidin-1-yl]-7H-pyrrolo[2,3-d]pyrimidin-5-yl}pyridin-2-amine]
0.115 µM	Cc1nc(N(C)Cc2c(F)cccc2F)c2c(-c3ccnc(N)c3)c[nH]c2n1 [Example 120, 5-(2-aminopyridin-4-yl)-N-(2,6-diflurobenzyl)-N,2-dimethyl-7H-pyrrolo[2,3-d]pyrimidin-4-amine]
0.114 µM	COc1cccnc1C(C)Nc1nc(C)nc2[nH]cc(-c3ccnc(N)c3)c12 (stereo not drawn) [Example 113, 5-(2-aminopyridin-4-yl)-N-[1-(3-methoxypyridin-2-yl)ethyl]-2-methyl-7H-pyrrolo[2,3-d]pyrimidin-4-amine]
0.091 µM	Cc1nc(N2CCn3ccnc3C2)c2c(-c3ccnc(N)c3)c[nH]c2n1 [Example 135, 4-[4-(5,6-dihydroimidazo[1,2-a]pyrazin-7(8H)-yl)-2-methyl-7H-pyrrolo[2,3-d]pyrimidin-5-yl]pyridin-2-amine]
0.066 µM	CCC(Nc1nc(C)nc2[nH]cc(-c3ccnc(N)c3)c12)c1ncccc1F (stereo not drawn) [Example 121, 5-(2-aminopyridin-4-yl)-N-[1-(3-fluoropyridin-2-yl)propyl]-2-methyl-7H-pyrrolo[2,3-d]pyrimidin-4-amine]
0.05 µM	Cc1nc(N[C@@H](C)c2ncccc2F)c2c(-c3ccnc(N)c3)c[nH]c2n1 [Example 122, 5-(2-aminopyridin-4-yl)-N-[(1S)-1-(3-fluoropyridin-2-yl)ethyl]-2-methyl-7H-pyrrolo[2,3-d]pyrimidin-4-amine]
